Experimental data published in patent publication US9907879B2, “Haemostatic composition comprising crystalline polyphosphate” (BK Giulini GMBH, priority 2013, dated 2018).

Tests used:
[1] = test system: thrombin formation in blood plasma; assay: Assay for measuring thrombin formation in real-time (thrombogram); type: biochemical; conditions: low-thrombocyte plasma; maximum thrombin concentration in thrombogram
Experimental: This method was used to determine the formation of thrombin in blood plasma, triggered in each case by the polyphosphates, in relation to time and to the amounts of polyphosphate used. With the aid of the so-called thrombograms thus obtained, it is possible to draw conclusions concerning the response rate and the extent of thrombin formation. The measurements were carried out in accordance with the instructions from Thrombinoscope BV (manufacturer of the below-mentioned fluorogenic substrate) in a fluorometer (Fluoroscan Ascent, Thermo Scientific) equipped with a dispenser (see F. Müller et al., Cell 2009, 139, 1143-1156 and Supplemental Data). […] Inner filter effects and the substrate consumption were corrected by calibrating each measurement against a fluorescence curve which was determined by means of a mixture of the plasma (80 μl) with a fixed amount of thrombin/α2-macroglobulin complex (Thrombin Calibrator, Thrombinoscope BV). […]
Characteristic of the thrombograms are, in particular, the delay time and the endogenous thrombin potential (ETP). […] ETP refers to the integral of the measured curve of the thrombin concentration. […]
Table 1 below characterizes the investigated phosphates in terms of their water solubility, their chain length, their solid structure and their hemostatic action. Here, water-soluble refers to phosphates having a water solubility of at least 1 g per 100 g of water, as determined by the above-described technique. Here, hemostatic refers to phosphates where the thrombograms, as determined by the above-described technique, have a maximum thrombin concentration of at least 50 nM. As can be clearly read off from Table 1, all the crystalline, water-insoluble polyphosphates according to the invention are notable for a hemostatic action, whereas amorphous, water-soluble polyphosphates and also crystalline mono-, tri- and metaphosphates are not hemostatic.

[2] = Determination of solubility in water; type: physicochemical; conditions: distilled water, 20-22° C., shaken 20 min
Experimental: The polyphosphates to be investigated were each weighed out in a 250 ml Erlenmeyer flask (5 g±0.01 g) and admixed with distilled water (50 ml, 20-22° C.). The mixture thus obtained was shaken at 200 revolutions per minute (rpm, rotary movement) for 20 min. Thereafter, the mixture was transferred to a centrifuge tube and centrifuged at 5000 rpm for 20 min. […] The solubility in g per 100 g of water was then obtained from the formula TR×10, where TR represents the determined dry residue in grams.

SMILES | Hemostatic [1] | Water-soluble [2]
O=P([O-])([O-])OP(=O)([O-])OP(=O)([O-])[O-].[Na+].[Na+].[Na+].[Na+].[Na+] [Example V1, sodium triphosphate] | No (hemostatic refers to phosphates where the thrombograms, as determined by the above-described technique, have a maximum thrombin concentration of at least 50 nM) | –
O.O.O=P([O-])([O-])O.[Ca+2] [Example V8, dicalcium phosphate dihydrate] | No (hemostatic refers to phosphates where the thrombograms, as determined by the above-described technique, have a maximum thrombin concentration of at least 50 nM) | –
O=P1([O-])OP(=O)([O-])OP(=O)([O-])O1.[Na+].[Na+].[Na+] [Example V7, sodium trimetaphosphate] | No (hemostatic refers to phosphates where the thrombograms, as determined by the above-described technique, have a maximum thrombin concentration of at least 50 nM) | Yes (water-soluble refers to phosphates having a water solubility of at least 1 g per 100 g of water)
